Reference: patent US8003648B2, “Heterocyclic GPR40 modulators” (Amgen Inc., priority 2006, dated 2011)

Target: T1, human GPR40 (Homo sapiens, UniProt O14842)
T1 construct: host or cells: CHO cells
Experiment: Cell-based aequorin assay using human GPR40
Settings: activation of human GPR40; CHO cells stably transfected with GPR40 and Aequorin; 0.01% HSA; aequorin luminescence
Description: Cell-based aequorin assays were employed to characterize the modulatory activity of compounds on the GPR40 signaling pathway. In an exemplary assay, CHO cells were stably transfected with both GPR40 and Aequorin (Euroscreen). Cells were detached from the tissue culture dish with 2 mL of trypsin (0.25% (w/v)). Trypsinization was halted with 28 mL of Hanks Buffered Salt Solution containing 20 mM Hepes (H/HBSS) and 0.01% fatty acid-free human serum albumin (HSA). Coelantrazine is added to 1 ug/mL, and the cells were incubated for 2 hours at room temperature. Compounds were dissolved in DMSO for preparation of 10 mM stock solutions. Compounds were diluted in H/HBSS containing 0.01% HSA. Serial dilutions of the test compounds were prepared to determine dose response.
Aequorin luminescence measurements were made using an EG&G Berthold 96-well luminometer, and the response was measured over a 20 second interval after cells and compounds were mixed. The maximum relative light units was plotted to determine dose response. The EC50 (effective concentration to reach 50% maximal response) was determined from the dose response plot.
Table 1 presents representative data (EC50 values) obtained for exemplary compounds of the invention for the activation of human GPR40. […]

T1 sequence (O14842 whole entry): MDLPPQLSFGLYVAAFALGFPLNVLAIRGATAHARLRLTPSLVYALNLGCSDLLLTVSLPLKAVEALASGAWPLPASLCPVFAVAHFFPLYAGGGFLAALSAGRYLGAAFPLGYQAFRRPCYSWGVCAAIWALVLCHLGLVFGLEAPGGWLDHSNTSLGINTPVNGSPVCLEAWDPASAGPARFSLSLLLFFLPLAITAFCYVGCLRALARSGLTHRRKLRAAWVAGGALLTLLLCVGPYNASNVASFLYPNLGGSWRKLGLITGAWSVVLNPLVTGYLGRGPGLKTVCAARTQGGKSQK

SMILES: CCOc1cc(Cl)ccc1-c1ccc(COc2ccc([C@H](CC(=O)O)c3ccon3)cc2)cc1 [Example 4, (S)-3-(4-(4-(4-Chloro-2-ethoxyphenyl)benzyloxy)phenyl)-3-(isoxazol-3-yl)propanoic acid]
- EC50: 10 to 100 nM

SMILES: CC1(C)CCC=C1c1cc(COc2ccc([C@H](CC(=O)O)c3ccon3)cc2)ccc1OC(F)(F)F [Example 38, (S)-3-(4-(3-(5,5-Dimethylcyclopent-1-enyl)-4-(trifluoromethoxy)benzyloxy)phenyl)-3-(isoxazol-3-yl)propanoic acid]
- EC50: 10 to 100 nM

SMILES: CC(C)c1ccc(COc2ccc([C@H](CC(=O)O)c3ccon3)cc2)cc1OC(F)(F)F [Example 37, (S)-3-(4-(4-Isopropyl-3-(trifluoromethoxy)benzyloxy)phenyl)-3-(isoxazol-3-yl)propanoic acid]
- EC50: 10 to 100 nM

SMILES: CC1(C)CCC(C)(C)c2cc(COc3ccc(C(CC(=O)O)C4=NOCC4)cc3)ccc21 (centres unmarked) [Example 42, 3-(4,5-Dihydroisoxazol-3-yl)-3-(4-((5,5,8,8-tetramethyl-5,6,7,8-tetrahydronaphthalen-2-yl)methoxy)phenyl)propanoic acid]
- EC50: 100 to 1000 nM

SMILES: O=C(O)C[C@@H](c1ccc(OCc2ccc(Cl)c(C(F)(F)F)c2)cc1)c1ccon1 [Example 21, (S)-3-(4-(4-Chloro-3-(trifluoromethyl)benzyloxy)phenyl)-3-(isoxazol-3-yl)propanoic acid]
- EC50: 10 to 100 nM

SMILES: CC1(C)CCC(C)(C)c2cc(COc3ccc([C@H](CC(=O)O)c4ccon4)cc3)ccc21 [Example 40, (S)-3-(Isoxazol-3-yl)-3-(4-((5,5,8,8-tetramethyl-5,6,7,8-tetrahydronaphthalen-2-yl)methoxy)phenyl)propanoic acid]
- EC50: 10 to 100 nM

SMILES: Cc1oc(-c2ccc(Cl)cc2)cc1COc1ccc([C@H](CC(=O)O)c2ccon2)cc1 [Example 53, (S)-3-(4-((5-(4-Chlorophenyl)-2-methylfuran-3-yl)methoxy)phenyl)-3-(isoxazol-3-yl)propanoic acid]
- EC50: 10 to 100 nM

SMILES: O=C(O)C[C@@H](c1ccc(OCc2ccc(OC(F)(F)F)c(C3=CCCC3)c2)cc1)c1ccon1 [Example 20, (S)-3-(4-(3-Cyclopentenyl-4-(trifluoromethoxy)benzyloxy)-phenyl)-3-(isoxazol-3-yl)propanoic acid]
- EC50: 10 to 100 nM

SMILES: O=C(O)C[C@@H](c1ccc(OCc2cccc(S(=O)(=O)c3ccc(C(F)(F)F)cc3)c2)cc1)c1ccon1 [Example 33, (S)-3-(4-(3-(4-(Trifluoromethyl)phenylsulfonyl)benzyloxy)-phenyl)-3-(isoxazol-3-yl)propanoic acid]
- EC50: 100 to 1000 nM

SMILES: Cc1oc(-c2ccc(C(F)(F)F)cc2)cc1COc1ccc([C@H](CC(=O)O)c2ccon2)cc1 [Example 52, (S)-3-(Isoxazol-3-yl)-3-(4-((2-methyl-5-(4-(trifluoromethyl)phenyl)furan-3-yl)methoxy)phenyl)propanoic acid]
- EC50: 10 to 100 nM

SMILES: Cc1nc(-c2ccc(C(F)(F)F)cc2)sc1COc1ccc([C@H](CC(=O)O)C2=NOCC2)cc1 [Example 9, (S)-3-(Dihydroisoxazol-3-yl)-3-(4-((4-methyl-2-(4-(trifluoromethyl)phenyl)thiazol-5-yl)methoxy)phenyl)propanoic acid]
- EC50: 10 to 100 nM

SMILES: Cc1nc(-c2ccc(C(F)(F)F)cc2)oc1COc1ccc([C@H](CC(=O)O)c2ccon2)cc1 [Example 51, (S)-3-(Isoxazol-3-yl)-3-(4-((4-methyl-2-(4-(trifluoromethyl)phenyl)oxazol-5-yl)methoxy)phenyl)propanoic acid]
- EC50: 100 to 1000 nM

SMILES: Cc1ccc(COc2ccc([C@H](CC(=O)O)c3ccon3)cc2)cc1-c1ccc(CC(C)C)cc1 [Example 17, (S)-3-(4-(3-(4-Isobutyl)-phenyl-4-methylbenzyloxy)phenyl)-3-(isoxazol-3-yl)propanoic acid]
- EC50: 100 to 1000 nM

SMILES: Cc1nc(-c2ccc(CCCO)cc2)sc1COc1ccc([C@H](CC(=O)O)c2ccon2)cc1 [Example 55, (S)-3-(4-((2-(4-(3-Hydroxypropyl)phenyl)-4-methylthiazol-5-yl)methoxy)phenyl)-3-(isoxazol-3-yl)propanoic acid]
- EC50: 1000 to 10000 nM

SMILES: Cc1nc(-c2ccc(OC(C)C)c(Cl)c2)sc1COc1ccc([C@H](CC(=O)O)c2ccon2)cc1 [Example 81]
- EC50: 10 to 100 nM

SMILES: O=C(O)C[C@@H](c1ccc(OCc2nc(-c3ccc(OCc4ccc(Cl)cc4)cc3)no2)cc1)c1ccon1 [Example 12, (S)-3-(4-((3-(4-(4-Chlorobenzyloxy)phenyl)-1,2,4-oxadiazol-5-yl)methoxy)phenyl)-3-(isoxazol-3-yl)propanoic acid]
- EC50: 100 to 1000 nM

SMILES: O=C(O)C[C@@H](c1ccc(OCc2ccc(OC(F)(F)F)c(Br)c2)cc1)c1ccon1 [Example 25, (S)-3-(4-(3-bromo-4-(trifluoromethoxy)benzyloxy)phenyl)-3-(isoxazol-3-yl)propanoic acid]
- EC50: 10 to 100 nM

SMILES: CCCOc1c(C)cc(-c2nc(C)c(COc3ccc([C@H](CC(=O)O)c4ccon4)cc3)s2)cc1C [Example 80]
- EC50: 10 to 100 nM

SMILES: O=C(O)C[C@@H](c1ccc(OCc2ccc(OC(F)(F)F)c(C3CCCC3)c2)cc1)c1ccon1 [Example 23, (S)-3-(4-(3-Cyclopentyl-4-(trifluoromethoxy)benzyloxy)-phenyl)-3-(isoxazol-3-yl)propanoic acid]
- EC50: 10 to 100 nM

SMILES: CCCCc1ccc(-c2cc(COc3ccc([C@H](CC(=O)O)c4ccon4)cc3)ccc2C)cc1 [Example 18, (S)-3-(4-(3-(4-Butyl)-phenyl-4-methylbenzyloxy)phenyl)-3-(isoxazol-3-yl)propanoic acid]
- EC50: 100 to 1000 nM

SMILES: O=C(O)C[C@@H](c1ccc(OCc2cccc(NC(=O)c3ccc(C(F)(F)F)cc3)c2)cc1)c1ccon1 [Example 27, (S)-3-(4-(3-(4-(Trifluoromethyl)benzamido)benzyloxy)phenyl)-3-(isoxazol-3-yl)propanoic acid]
- EC50: 100 to 1000 nM

SMILES: O=C(O)C[C@@H](c1ccc(OCc2cccc(NS(=O)(=O)c3ccc(C(F)(F)F)cc3)c2)cc1)c1ccon1 [Example 32, (S)-3-(4-(3-(4-Trifluoromethylphenylsulfonamido)benzyloxy)-phenyl)-3-(isoxazol-3-yl)propanoic acid]
- EC50: 100 to 1000 nM

SMILES: Cc1c(Cl)cccc1-c1cccc(COc2ccc(C(CC(=O)O)c3ccon3)cc2)c1 (centres unmarked) [Example 1, 3-(4-(3-(3-Chloro-2-methylphenyl)benzyloxy)phenyl)-3-(isoxazol-3-yl)propanoic acid]
- EC50: 10 to 100 nM

SMILES: Cn1nc(-c2ccc(C(F)(F)F)cc2)cc1COc1ccc([C@H](CC(=O)O)c2ccon2)cc1 [Example 16, (S)-3-(Isoxazol-3-yl)-3-(4-((1-methyl-3-(4-(trifluoromethyl)phenyl)-1H-pyrazol-5-yl)methoxy)phenyl)propanoic acid]
- EC50: 100 to 1000 nM

SMILES: Cc1nc(-c2ccc(Cl)cc2)sc1COc1ccc([C@H](CC(=O)O)c2ccon2)cc1 [Example 57, (S)-3-(Isoxazol-3-yl)-3-(4-((4-methyl-2-(4-chlorophenyl)thiazol-5-yl)methoxy)phenyl)propanoic acid]
- EC50: 10 to 100 nM

SMILES: CC12CCC(c3ncc(COc4ccc([C@H](CC(=O)O)c5ccon5)cc4)nc31)C2(C)C (some centres unmarked) [Example 83]
- EC50: 1000 to 10000 nM

SMILES: Cc1ccc(-c2nc(C)c(COc3ccc([C@H](CC(=O)O)c4ccon4)cc3)s2)cc1 [Example 58, (S)-3-(Isoxazol-3-yl)-3-(4-((4-methyl-2-(4-methylphenyl)thiazol-5-yl)methoxy)phenyl)propanoic acid]
- EC50: 10 to 100 nM

SMILES: Cc1oc(-c2ccc(C(F)(F)F)cc2)nc1COc1ccc([C@H](CC(=O)O)c2ccon2)cc1 [Example 50, (S)-3-(Isoxazol-3-yl)-3-(4-((5-methyl-2-(4-(trifluoromethyl)phenyl)oxazol-4-yl)methoxy)phenyl)propanoic acid]
- EC50: 100 to 1000 nM

SMILES: CCCCc1ccc(-c2ccc(COc3ccc([C@H](CC(=O)O)c4ccon4)cc3)s2)cc1 [Example 60, (3S)-3-(4-(((5-(4-butylphenyl)-2-thienyl)methyl)oxy)phenyl)-3-(3-isoxazolyl)propanoic acid]
- EC50: 10 to 100 nM

SMILES: O=C(O)C[C@@H](c1ccc(OCc2ccc(-c3ccc(C(F)(F)F)cc3)s2)cc1)c1ccon1 [Example 61, (3S)-3-(3-Isoxazolyl)-3-(4-(((5-(4-(trifluoromethyl)phenyl)-2-thienyl)methyl)oxy)phenyl)propanoic acid]
- EC50: 10 to 100 nM

SMILES: Cc1nc(-c2ccc(C(F)(F)F)cc2)sc1COc1ccc([C@@H](CC(=O)O)c2ccon2)cc1 [Example 6, (R)-3-(Isoxazol-3-yl)-3-(4-((4-methyl-2-(4-(trifluoromethyl)phenyl)thiazol-5-yl)methoxy)phenyl)propanoic acid]
- EC50: 100 to 1000 nM

SMILES: CC12CCC(c3nc(COc4ccc([C@H](CC(=O)O)c5ccon5)cc4)cnc31)C2(C)C (some centres unmarked) [Example 82]
- EC50: 1000 to 10000 nM

SMILES: O=C(O)C[C@@H](c1ccc(OCc2noc(-c3ccc(C(F)(F)F)cc3)n2)cc1)c1ccon1 [Example 65]
- EC50: 1000 to 10000 nM

SMILES: O=C(O)C[C@H](c1ccc(OCc2cccc(-c3ccc(C(F)(F)F)cc3)c2)cc1)c1ccon1 [Example 3, (R)-3-(4-(3-(4-(Trifluoromethyl)phenyl)benzyloxy)phenyl)-3-(isoxazol-3-yl)propanoic acid]
- EC50: 1000 to 10000 nM

SMILES: O=C(O)C[C@@H](c1ccc(OCc2ccc(OC(F)(F)F)c(OC(F)(F)F)c2)cc1)c1ccon1 [Example 22, (S)-3-(4-(3,4-Bis(trifluoromethoxy)benzyloxy)phenyl)-3-(isoxazol-3-yl)propanoic acid]
- EC50: 10 to 100 nM
